Test results reported in US20240165214A1, “COMPOSITIONS AND METHODS FOR STABILIZATION OF ALLOSTERIC PROTEINS” (priority 2021, published 2024).

Key:
mAb21 = mAb21 binding time course to immobilized fimbriae and three-state model; settings: for mAb21 binding over time course: absence of mannose, 10 sec to 2 hours; for keq ± SEM: Keq=kact/kdeact; for time to 50% of the maximal optical density (OD50) of mAb21 binding: presence of soluble mannose
Description: The assays were performed as described previously. In brief. 96-well microtiter plates were coated overnight with purified type 1 fimbriae in 0.02 M NaHCO3 buffer at pH 9.6 (0.1 mg/ml), followed by washes and quenching with 0.2% BSA in PBS. The immobilized fimbriae were incubated with HRP at a concentration of 50 μg/ml for 1 h in the absence or presence of 1% mannose. After extensive washing with PBS, bound horseradish peroxidase was detected by adding 100 μl of TMB substrate (Kirkegaard and Perry Laboratories, KPL) and absorbance was read at 650 nm. […] After the incubation for indicated time, the plates were washed extensively with PBS and FimH-mAb21 complexes were detected using HRP-conjugated goat anti-mouse antibody (Sigma-Aldrich, diluted 1:3000). All incubations, unless stated otherwise, were performed at 37 C. The colorimetric reaction was developed in the presence of TMB substrate at RT and absorbance was read at 650 nm.
For our modeling, we made the following definitions and assumptions.
To estimate kmAb21, we assumed that LD^A27V-PD^FocH is essentially all in HAS in the presence of mannose, so we fit high time-resolution data with a saturable binding model,
We then estimated kact and kdeact for all four variants in the presence and absence of mannose by fitting this model to the data by minimizing the least square error between the model and data points divided by the value of the data. Parameters were estimated independently for the data from each day the experiment was performed, to provide multiple values of each constant.
There were two limitations to using this model to estimate these parameters. […] Second, in two additional conditions—LD^wt-PD^wt in the presence of mannose and LD^A27V-PD^wt in the absence of mannose, a wide range of values of the rate constants produced the same fitting error. To identify a lower bound for the rate constants, we fit kact while holding kdeact constant over a wide range of values and observed that the error was high for low rates but reached a plateau at higher rates. We identified the lowest kdeact and corresponding kact values at which the error was no more than 10% that of all higher values. Throughout this plateau, Keq=kact/kdeact remained within a tight and reproducible range, so was well-determined by the model. For these two conditions, the lower bounds for the two kinetic constants and the upper and lower bound for the equilibrium constants are reported in Table 8.
For the remaining five conditions, the rate constants as well as equilibrium constants were reproducible for a wide range of initial guesses, and between replicate experiments, so we consider these to be reliable. […] These values were consistent with the estimated bounds and are also reported in FIGS. 20C and 20D for illustration.

[1] = system: guinea pig red blood cells (RBC); experiment: RBC aggregation under dynamic (rocking) conditions; format: cell-based
Description: (§1) Guinea pig RBC (Colorado Serum Company) were washed with PBS three times. 50 μl of RBC suspension (1%) was mixed 1:1 with 50 μl of 4×10^8 cfu of type 1 fimbriated bacteria in a glass plate in the absence and presence of 1% αmm and continuously mixed by gently rocking at ˜2-3 s^−1. The aggregation of RBC was visually scored and the time at which noticeable aggregation was observed and reported in minutes (min). In some experiments, bacterial cells were first pre-incubated for 5 min with 67 μg/ml of mAbs in the glass plate and then mixed with RBC suspension in the absence and presence of 1% αmm. RBC rosette-formation assay under was performed by mixing equal amounts of serially diluted bacterial sus-pensions (starting from OD540 nm 1.0) and a 1% suspension of RBC in U-bottom microtiter plate wells as described previously.
(§2) Finally, we compared cell binding ability of the FimH-expressing bacteria under static and dynamic conditions by using two classical set-ups with agglutination of guinea pig red blood cells (RBC)—the model cells for type 1 flmbriae-mediated bacterial adhesion. In the static assays, different dilutions of bacteria were combined with a suspension of RBC in U-shaped microtiter wells and allowed to settle without shaking. […]

guinea pig RBC = experiment: Red blood cell (RBC) aggregation by bacteria under rocking (Example 1); format: cell-based
Description: Guinea pig RBC (Colorado Serum Company) were washed with PBS three times. 50 μl of RBC suspension (1%) was mixed 1:1 with 50 μl of 4×10^8 of type 1 fimbriated bacteria in a glass plate in the absence and presence of 1% αmm and continuously mixed at high speed on rotator (Model 260300F, Fisher Scientific) for extended period of time. The aggregation of RBC was visually scored and the time at which noticeable aggregation was observed and reported in minutes (min). In some experiments, bacterial cells were first pre-incubated for 5 min with 67 μg/ml of mAbs in the glass plate and then mixed with RBC suspension in the absence and presence of 1% αmm.

RNase B = experiment: BLI kinetics of FimH fimbriae binding to RNase B; set-up: species or system bovine; settings: RNAseB binding
Description: To test the kinetics of fimbriae binding to RNase B, streptavidin-coated biosensors (SA, FortéBio) were first allowed to bind biotinylated RNase B (applied at a concentration of 10-20 μg/ml in 0.2% BSA HBS). […] The dissociation of the fimbriae-RNase B complexes was conducted in 0.2% BSA HBS. The binding sensorgrams after single reference subtraction (biosensors with 0.2% BSA HBS, or Fab824, respectively) were used for global fitting. […] The standard error that was given in the table for the kinetic parameters relates to the “fit” of the data to the model.

[2] = system: guinea pig red blood cells (RBC); experiment: RBC agglutination (rosette) under static conditions; format: cell-based
Description: as §1, §2

HRP = format: binding; settings: fimbriae pre-treated with mAb824
Description: The assays were performed as described previously. In brief. 96-well microtiter plates were coated overnight with purified type 1 fimbriae in 0.02 M NaHCO3 buffer at pH 9.6 (0.1 mg/ml), followed by washes and quenching with 0.2% BSA in PBS. The immobilized fimbriae were incubated with HRP at a concentration of 50 μg/ml for 1 h in the absence or presence of 1% mannose. After extensive washing with PBS, bound horseradish peroxidase was detected by adding 100 μl of TMB substrate (Kirkegaard and Perry Laboratories, KPL) and absorbance was read at 650 nm. […] All incubations, unless stated otherwise, were performed at 37 C. The colorimetric reaction was developed in the presence of TMB substrate at RT and absorbance was read at 650 nm.

[3] = biological target: T1, FimH^wt (FimH adhesin of E. coli K12) (Escherichia coli K12, UniProt P08191 22-300); experiment: BLI; fimbriae on biotinylated RNase B on streptavidin probe; conformational change model; PBS
T1 construct: also called FimH^K12; LD^A27V-PD^wt
Description: To test the kinetics of fimbriae binding to RNase B, streptavidin-coated biosensors (SA, FortéBio) were first allowed to bind biotinylated RNase B (applied at a concentration of 10-20 μg/ml in 0.2% BSA HBS). […] The dissociation of the fimbriae-RNase B complexes was conducted in 0.2% BSA HBS. […] The standard error that was given in the table for the kinetic parameters relates to the “fit” of the data to the model.

asialofetuin = experiment: FmIH-dependent bacterial adhesion to asialofetuin; format: cell-based
Description: (§3) FmIH-dependent bacterial adhesion was analyzed as described previously with minor modifications (47). Briefly, Immulon 4HBX microtiter plates (Thermo Electron Corp.) were coated with 20 μg/mL of asialofetuin (Sigma-Aldrich) and plates were quenched with 0.2% BSA in PBS. Bacterial suspensions in PBS (OD540=2) were added to each well in a volume of 100 μl and plates were spun for 2 min at 750×g. After extensive washing, bound bacteria were stained with 0.1% (vol/vol) crystal violet for 20 min at room temperature and were washed several times with water. Then 100 μl of 50% (vol/vol) ethanol was added to each well, and the absorbance at a wavelength of 600 nm was measured. For inhibition, bacterial binding was tested in the presence of 1% galactose (Sigma).
as §3, with “[Kisiela D I, et al. (2015) Inhibition and Reversal of Microbial Attachment by an Antibody with Parasteric Activity against the FimH Adhesin of Uropathogenic E. coli. PLoS Pathog 11: e1004857].” for “(47).”, “(ThermoFisher Scientific)” for “(Thermo Electron Corp.)”

[4] = full-length FmIH in type 1 fimbrial background

**Q.** “FimH^wt: 'wild-type' FimH adhesin from E. coli K12; b242: K12 and J96 express LD^A27V-PD^wt” was tested. Which “mAb21 binding over time course” value (mAb21) did it give?
**A.** only marginal at the later time points

**Q.** What about the “kact ± SEM” value (mAb21; mannose absence) of the same molecule?
**A.** >8.8 × 10^−5

**Q.** And the “kdeact ± SEM” value (mAb21; mannose absence)?
**A.** >2.3 × 10^0

**Q.** What about the “keq ± SEM” value (mAb21; mannose absence) of the same molecule?
**A.** 1.5 × 10^−3 to 4.0 × 10^−3

**Q.** What about the “kact ± SEM” value (mAb21; mannose presence) of the same molecule?
**A.** 3.4 × 10^−3 ± 0.4 × 10^−3

**Q.** And the “kdeact ± SEM” value (mAb21; mannose presence)?
**A.** 8.7 × 10^−3 ± 1.7 × 10^−2

**Q.** What about the “keq ± SEM” value (mAb21; mannose presence) of the same molecule?
**A.** 3.9 × 10^−1 ± 0.9 × 10^−1

**Q.** What about the “time to 50% of the maximal optical density (OD50) of mAb21 binding” value (mAb21) of the same molecule?
**A.** ~3 min

**Q.** What about the “Minimal IC of mannose” value [1] of the same molecule?
**A.** .1%

**Q.** And the “Time upon which noticeable aggregation of RBC was observed” value (guinea pig RBC; mAb824 pre-incubation (67 μg/ml))?
**A.** >60 min

**Q.** And the “Time upon which noticeable aggregation of RBC was observed” value (guinea pig RBC; αmm (1%))?
**A.** >60 min

**Q.** And the “koff higher relative to FimH^FocH” value (RNase B)?
**A.** ~1000 fold

**Q.** What about the “kon higher relative to FimH^FocH” value (RNase B) of the same molecule?
**A.** ~50 fold

**Q.** What about the “lower affinity relative to FimH^FocH” value (RNase B) of the same molecule?
**A.** ~10 fold

**Q.** And the “RBC binding / rosette formation” value [2]?
**A.** only at a relatively high concentration (low titer) of bacteria

**Q.** What about the “binding of HRP in complex with mAb824” value (HRP) of the same molecule?
**A.** remained very weak

**Q.** Which “mAb21 binding over time course” value (mAb21) does the source give for “LD^wt-PD^wt: naturally-occurring FimH from fecal E. coli strain F18, evolutionary wild-type” here?
**A.** No reliably measurable binding

**Q.** What about the “kact ± SEM” value (mAb21; mannose presence) of the same molecule?
**A.** >2.0 × 10^−4

**Q.** What about the “kdeact ± SEM” value (mAb21; mannose presence) of the same molecule?
**A.** >8.5 × 10^−2

**Q.** And the “keq ± SEM” value (mAb21; mannose presence)?
**A.** 1.7 × 10^−2 to 2.3 × 10^−2

**Q.** And the “mAb21 binding to fimbriae” value (mAb21; presence of 1% alpha-methyl-mannoside, 1 h)?
**A.** somewhat lower

**Q.** What about the “time to 50% of the maximal optical density (OD50) of mAb21 binding” value (mAb21) of the same molecule?
**A.** ~30 min

**Q.** What about the “Minimal IC of mannose” value [1] of the same molecule?
**A.** .1%

**Q.** And the “RBC binding / rosette formation” value [2]?
**A.** could not bind RBC at any concentration

**Q.** And the “binding of HRP in complex with mAb824” value (HRP)?
**A.** remained very weak

B1: ribonuclease B (RNase B), bovine (enzyme, UniProt P61823 27-150, looked up)
chain: KETAAAKFERQHMDSSTSAASSSNYCNQMMKSRNLTKDRCKPVNTFVHESLADVQAVCSQKNVACKNGQTNCYQSYSTMSITDCRETGSSKYPNCAYKTTQANKHIIVACEGNPYVPVHFDASV
modifications: N-linked high-mannose (Man5) oligosaccharides; biotinylated with Sulfo-NHS-LC-Biotin
**Q.** With B1 as the molecule, how does the Kd [3] read?
**A.** 0.149 µM

**Q.** And the koff [3]?
**A.** 0.256 s⁻¹

**Q.** What about the kon [3] of the same molecule?
**A.** 1.1e+06 M⁻¹ s⁻¹

B2: V33E (protein, listed as Escherichia coli)
chain: FSCNVDGGSSIGAGTTSVYVNLDPVIQPGQNLEVDLSQHISCWNDYGGWYDTDHINLVQGSAFAGSLQSYKGSLYWNNVTYPFPLTTNTNVLDIGDKTPMPLPLKLYITPVGAAGGVVIKAGEVIARIHMYKIATLGSGNPRNFTWNIISNNSVVMPTGG
**Q.** Which “bacterial binding to asialofetuin” value (asialofetuin; [4]) does the source give for B2 here?
**A.** activation of the binding phenotype

B3: L32E (protein, listed as Escherichia coli)
chain: FSCNVDGGSSIGAGTTSVYVNLDPVIQPGQNEVVDLSQHISCWNDYGGWYDTDHINLVQGSAFAGSLQSYKGSLYWNNVTYPFPLTTNTNVLDIGDKTPMPLPLKLYITPVGAAGGVVIKAGEVIARIHMYKIATLGSGNPRNFTWNIISNNSVVMPTGG
**Q.** With B3 as the molecule, how does the “bacterial binding to asialofetuin” value (asialofetuin; [4]) read?
**A.** did not increase binding

**Q.** What about the “bacterial binding to asialofetuin” value (asialofetuin; mutation in FmIH^FocH) of the same molecule?
**A.** decreased the binding properties of FmIH^FocH

B4: F63E (protein, listed as Escherichia coli)
chain: FSCNVDGGSSIGAGTTSVYVNLDPVIQPGQNLVVDLSQHISCWNDYGGWYDTDHINLVQGSAEAGSLQSYKGSLYWNNVTYPFPLTTNTNVLDIGDKTPMPLPLKLYITPVGAAGGVVIKAGEVIARIHMYKIATLGSGNPRNFTWNIISNNSVVMPTGG
**Q.** For B4, which “bacterial binding to asialofetuin” value (asialofetuin; [4]) is on record?
**A.** activation of the binding phenotype

B5: FmIH^FocH: wild-type FmIH lectin domain fused to the heterogeneous FocH-type pilin domain (protein)
chain: FSCNVDGGSSIGAGTTSVYVNLDPVIQPGQNLVVDLSQHISCWNDYGGWYDTDHINLVQGSAFAGSLQSYKGSLYWNNVTYPFPLTTNTNVLDIGDKTPMPLPLKLYITPVGAAGGVVIKAGEVIARIHMYKIATLGSGNPRNFTWNIISNNSVVMPTGGCDVSARDVTVTLPDYPGSVPIPLTVRCDQTQSVSYTLSGSVADAGNSIFTNTASFSPAQGVGVQLTRNGTIIPANNTVSLGAVGTSAVSLGLTANYARTGGQVTAGNVQSIIGVTFVYQ
**Q.** For B5, which “bacterial binding to asialofetuin” value (asialofetuin; [4]) is on record?
**A.** increased binding relative to the wild-type adhesin
